From PubChem BioAssay AID2060882 (Molecular Pharmacology Branch, DTP, NCI, 2025)

Test system: 898857-211-R-J1-PDC complex spheroids, growth % test/control
Assay: Anticancer human tumor 898857-211-R-J1-PDC patient-derived melanoma cell line growth inhibition [RAS]
Details: for viability, T/C: stronger effect = lower value; active = viability on the fitted dose curve at most 10% of control; inactive = the rest
In short: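 Agents were tested in combination matrices in half-log decrements from a top concentration at or near clinical Cmax (10 microM if undetermined). Targets were multi-cell spheroids of tumour lines plus HUVEC and MSC stromal cells.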

[1] = curve of first compound, second compound 0.000949 µM
[2] = curve of first compound, second compound 0.003 µM
[3] = curve of first compound, second compound 0.00949 µM
[4] = curve of first compound, second compound 0.03 µM
[5] = curve of first compound, second compound 0.0949 µM
[6] = curve of first compound, second compound 0.3 µM
[7] = second compound 0.000949 µM, first compound 0.000949 µM
[8] = second compound 0.000949 µM, first compound 0.003 µM
[9] = second compound 0.000949 µM, first compound 0.00949 µM
[10] = second compound 0.000949 µM, first compound 0.03 µM
[11] = second compound 0.000949 µM, first compound 0.0949 µM
[12] = second compound 0.000949 µM, first compound 0.3 µM
[13] = second compound 0.003 µM, first compound 0.000949 µM
[14] = second compound 0.003 µM, first compound 0.003 µM
[15] = second compound 0.003 µM, first compound 0.00949 µM
[16] = second compound 0.003 µM, first compound 0.03 µM
[17] = second compound 0.003 µM, first compound 0.0949 µM
[18] = second compound 0.003 µM, first compound 0.3 µM
[19] = second compound 0.00949 µM, first compound 0.000949 µM
[20] = second compound 0.00949 µM, first compound 0.003 µM
[21] = second compound 0.00949 µM, first compound 0.00949 µM
[22] = second compound 0.00949 µM, first compound 0.03 µM
[23] = second compound 0.00949 µM, first compound 0.0949 µM
[24] = second compound 0.00949 µM, first compound 0.3 µM
[25] = second compound 0.03 µM, first compound 0.000949 µM
[26] = second compound 0.03 µM, first compound 0.003 µM
[27] = second compound 0.03 µM, first compound 0.00949 µM
[28] = second compound 0.03 µM, first compound 0.03 µM
[29] = second compound 0.03 µM, first compound 0.0949 µM
[30] = second compound 0.03 µM, first compound 0.3 µM
[31] = second compound 0.0949 µM, first compound 0.000949 µM
[32] = second compound 0.0949 µM, first compound 0.003 µM
[33] = second compound 0.0949 µM, first compound 0.00949 µM
[34] = second compound 0.0949 µM, first compound 0.03 µM
[35] = second compound 0.0949 µM, first compound 0.0949 µM
[36] = second compound 0.0949 µM, first compound 0.3 µM
[37] = second compound 0.3 µM, first compound 0.000949 µM
[38] = second compound 0.3 µM, first compound 0.003 µM
[39] = second compound 0.3 µM, first compound 0.00949 µM
[40] = second compound 0.3 µM, first compound 0.03 µM
[41] = second compound 0.3 µM, first compound 0.0949 µM
[42] = second compound 0.3 µM, first compound 0.3 µM
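Note: spheroids exposed to compound for seven days before readout.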
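Throughout, for viability, T/C: 100% = DMSO vehicle control wells.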

CCc1c2c(nc3ccc(O)cc13)-c1cc3c(c(=O)n1C2)COC(=O)[C@]3(O)CC + CCn1c(-c2cccnc2C(C)OC)c2c3cc(ccc31)N1CCOC(CC(NC(=O)C(C(C)C)N(C)C(=O)C3(F)CCN(C(=O)C#CC(C)(C)N(C)C)CC3)C(=O)N3CCCC(N3)C(=O)OCC(C)(C)C2)C1
5.13 nM: IC50 [1]
inactive: viability, T/C [7] 103% | viability, T/C [8] 66.7% | viability, T/C [9] 31.6% | viability, T/C [10] 10.2% | viability, T/C [13] 92.2% | viability, T/C [14] 64.1% | viability, T/C [15] 31.5% | viability, T/C [16] 11.2% | viability, T/C [19] 91.5% | viability, T/C [20] 58.2% | viability, T/C [21] 30.2% | viability, T/C [22] 11.7% | viability, T/C [25] 88.5% | viability, T/C [26] 55.3% | viability, T/C [27] 28.3% | viability, T/C [28] 9.56% | viability, T/C [31] 77.6% | viability, T/C [32] 52.6% | viability, T/C [33] 29.5% | viability, T/C [34] 8.59% | viability, T/C [37] 65.3% | viability, T/C [38] 48.6% | viability, T/C [39] 20.1%
4.91 nM: IC50 [2]
3.8 nM: IC50 [4]
active: viability, T/C [11] 7.77% | viability, T/C [12] 6.78% | viability, T/C [17] 6.86% | viability, T/C [18] 5.62% | viability, T/C [23] 6.64% | viability, T/C [24] 7.62% | viability, T/C [29] 7.6% | viability, T/C [30] 5.55% | viability, T/C [35] 6.88% | viability, T/C [36] 5.75% | viability, T/C [40] 7.15% | viability, T/C [41] 8.16% | viability, T/C [42] 5.2%
3.54 nM: IC50 [5]
4.21 nM: IC50 [3]
2.75 nM: IC50 [6]

CC(C)n1nc(-c2ccc3oc(N)nc3c2)c2c(N)ncnc21
28.7 nM [middle of 4 runs]: IC50 (curve of compound)
inactive: viability, T/C (compound 0.000316 µM) 112% [middle of 4 runs] | viability, T/C (compound 0.001 µM) 95.8% [middle of 4 runs] | viability, T/C (compound 0.00316 µM) 96.8% [middle of 4 runs] | viability, T/C (compound 0.01 µM) 73.3% [middle of 4 runs] | viability, T/C (compound 0.0316 µM) 48.5% [middle of 4 runs] | viability, T/C (compound 0.1 µM) 20.9% [middle of 4 runs]

C[C@@H](NC(=O)c1ncnc(N)c1Cl)c1ncc(C(=O)Nc2cc(C(F)(F)F)c(Cl)cn2)s1 + C=CC(=O)N1CCN(c2nc(OCC3CCCN3C)nc3c(F)c(-c4nc(N)cc(C)c4C(F)(F)F)c(Cl)cc23)C(C)C1
inactive: viability, T/C (second compound 0.00316 µM, first compound 0.0316 µM) 127% | viability, T/C (second compound 0.00316 µM, first compound 0.1 µM) 120% | viability, T/C (second compound 0.00316 µM, first compound 0.316 µM) 111% | viability, T/C (second compound 0.00316 µM, first compound 1 µM) 80.8% | viability, T/C (second compound 0.00316 µM, first compound 3.16 µM) 63.6% | viability, T/C (second compound 0.00316 µM, first compound 10 µM) 40% | viability, T/C (second compound 0.01 µM, first compound 0.0316 µM) 124% | viability, T/C (second compound 0.01 µM, first compound 0.1 µM) 116% | viability, T/C (second compound 0.01 µM, first compound 0.316 µM) 103% | viability, T/C (second compound 0.01 µM, first compound 1 µM) 90.9% | viability, T/C (second compound 0.01 µM, first compound 3.16 µM) 68.5% | viability, T/C (second compound 0.01 µM, first compound 10 µM) 27.7% | viability, T/C (second compound 0.0316 µM, first compound 0.0316 µM) 130% | viability, T/C (second compound 0.0316 µM, first compound 0.1 µM) 123% | viability, T/C (second compound 0.0316 µM, first compound 0.316 µM) 112% | viability, T/C (second compound 0.0316 µM, first compound 1 µM) 89.3% | viability, T/C (second compound 0.0316 µM, first compound 3.16 µM) 71.2% | viability, T/C (second compound 0.0316 µM, first compound 10 µM) 32.6% | viability, T/C (second compound 0.1 µM, first compound 0.0316 µM) 124% | viability, T/C (second compound 0.1 µM, first compound 0.1 µM) 110% | viability, T/C (second compound 0.1 µM, first compound 0.316 µM) 118% | viability, T/C (second compound 0.1 µM, first compound 1 µM) 92.1% | viability, T/C (second compound 0.1 µM, first compound 3.16 µM) 61.7% | viability, T/C (second compound 0.1 µM, first compound 10 µM) 36.8% | viability, T/C (second compound 0.316 µM, first compound 0.0316 µM) 123% | viability, T/C (second compound 0.316 µM, first compound 0.1 µM) 135% | viability, T/C (second compound 0.316 µM, first compound 0.316 µM) 114% | viability, T/C (second compound 0.316 µM, first compound 1 µM) 96.3% | viability, T/C (second compound 0.316 µM, first compound 3.16 µM) 70.8% | viability, T/C (second compound 0.316 µM, first compound 10 µM) 39.1% | viability, T/C (second compound 1 µM, first compound 0.0316 µM) 132% | viability, T/C (second compound 1 µM, first compound 0.1 µM) 136% | viability, T/C (second compound 1 µM, first compound 0.316 µM) 111% | viability, T/C (second compound 1 µM, first compound 1 µM) 98.5% | viability, T/C (second compound 1 µM, first compound 3.16 µM) 57.5% | viability, T/C (second compound 1 µM, first compound 10 µM) 36.7%
5330 nM: IC50 (curve of first compound, second compound 0.01 µM)
5850 nM: IC50 (curve of first compound, second compound 0.00316 µM)
5120 nM: IC50 (curve of first compound, second compound 1 µM)
5770 nM: IC50 (curve of first compound, second compound 0.0316 µM)
5340 nM: IC50 (curve of first compound, second compound 0.1 µM)
6670 nM: IC50 (curve of first compound, second compound 0.316 µM)

CCc1c2c(nc3ccc(O)cc13)-c1cc3c(c(=O)n1C2)COC(=O)[C@]3(O)CC + CCn1c(-c2cc(N3CCN(C)CC3)cnc2C(C)OC)c2c3cc(ccc31)-c1csc(n1)CC(NC(=O)C1CC1C)C(=O)N1CCCC(N1)C(=O)OCC(C)(C)C2
3.37 nM: IC50 [3]
active: viability, T/C [11] 6.43% | viability, T/C [12] 6.55% | viability, T/C [17] 8.03% | viability, T/C [18] 5.94% | viability, T/C [23] 7.12% | viability, T/C [24] 7.62% | viability, T/C [29] 7.45% | viability, T/C [30] 5.98% | viability, T/C [35] 7.78% | viability, T/C [36] 6.37% | viability, T/C [40] 9.8% | viability, T/C [41] 7.03% | viability, T/C [42] 7.37%
3.54 nM: IC50 [2]
3.6 nM: IC50 [6]
3.78 nM: IC50 [5]
3.84 nM: IC50 [4]
3.72 nM: IC50 [1]
inactive: viability, T/C [7] 78.6% | viability, T/C [8] 55.3% | viability, T/C [9] 25.9% | viability, T/C [10] 8.36% | viability, T/C [13] 79.7% | viability, T/C [14] 53.8% | viability, T/C [15] 25.5% | viability, T/C [16] 8.25% | viability, T/C [19] 82.9% | viability, T/C [20] 52.6% | viability, T/C [21] 24.3% | viability, T/C [22] 9.47% | viability, T/C [25] 79.3% | viability, T/C [26] 56.2% | viability, T/C [27] 27% | viability, T/C [28] 9.94% | viability, T/C [31] 86.1% | viability, T/C [32] 55.3% | viability, T/C [33] 28% | viability, T/C [34] 9.13% | viability, T/C [37] 87.5% | viability, T/C [38] 55.5% | viability, T/C [39] 20.6%

C[C@@H](NC(=O)c1ncnc(N)c1Cl)c1ncc(C(=O)Nc2cc(C(F)(F)F)c(Cl)cn2)s1
inactive: viability, T/C (compound 0.1 µM) 122% [middle of 4 runs] | viability, T/C (compound 1 µM) 81.2% [middle of 4 runs] | viability, T/C (compound 10 µM) 36.8% [middle of 4 runs]
